From PubChem BioAssay AID1159564 (GlaxoSmithKline (GSK), 2015)
Calls of active or inactive are those of the source. No rule for the calls is given here.

System: L. donovani-infected THP-1 macrophages, intracellular amastigote imaging
Assay: antileishmanial activity in infected THP-1 macrophages – imaging, THP-1 host macrophages, host toxicity (AID 1159564)
[1] = measured here: THP-1 host cell toxicity
[2] = measured here: amastigotes per macrophage

Compound	IC50	IC50 [1]	IC50 [2]
CNc1nc(C)nc(N2CCc3cc(C(=O)NCc4ccc(-c5ccn[nH]5)cc4Cl)ccc32)n1	0.32 µM	> 50 µM	0.4 µM
CCOc1ccc(NC(=O)c2ccc(NC(=O)NC3CCCCC3)cc2)cc1	7.9 µM	4 µM	6.3 µM
Oc1c(-c2n[nH]c(Cc3ccc(Cl)cc3)n2)ncc2cccnc12	1.3 µM	20 µM	1 µM
Cc1[nH]nc(Nc2ccnc3[nH]ccc23)c1C	> 50 µM (inactive)	> 50 µM	> 50 µM
CN(C)CCN(C)Cc1ccc(F)cc1NS(=O)(=O)c1ccc(Cl)c(Cl)c1	7.9 µM	32 µM	2.5 µM
COc1cnc2ccc(=O)n(CCN3CCC(NC(=O)Cc4ccc(Cl)c(Cl)c4)CC3)c2c1	40 µM	25 µM	5 µM
COCc1cc(Nc2ccc(Cl)cc2)nc(-c2ccccn2)n1	1.3 µM	20 µM	0.79 µM
CC(=O)Nc1ccc(-c2ccnc(Nc3cccc(C#N)c3)n2)cc1	16 µM	10 µM	10 µM
CCOc1cnn(C)c(=O)c1Nc1ccc(C(=O)NCc2ccc(F)cc2)cc1	> 50 µM (inactive)	32 µM	> 50 µM
c1cncc(CN(Cc2ccco2)Cc2cn[nH]c2-c2cccs2)c1	> 50 µM (inactive)	20 µM	1.3 µM
CCCCN(C(=O)c1ccc(NC(=O)C(C)C)cc1)c1ccccc1	5 µM	> 50 µM	3.2 µM
COc1cc(Cl)c(C)cc1NC(=O)c1ccc([N+](=O)[O-])s1	6.3 µM	> 50 µM	5 µM
CC1(Oc2cncc(Cl)c2)CCN(Cc2cc3ccccc3[nH]2)C1 (centres undefined)	20 µM	32 µM	32 µM
N#Cc1ccc(S(=O)(=O)N2CCC3(CCN(c4ccccc4)C3=O)CC2)cc1	> 50 µM (inactive)	> 50 µM	> 50 µM
CC(C)(C)c1cc(NC2CC2)nc(-c2ccccn2)n1	2.5 µM	25 µM	1.6 µM
Cc1nnnn1-c1cccc(C(=O)N2CCC[C@@]3(C)c4ncncc4CCC23)c1 (some centres undefined)	> 50 µM (inactive)	> 50 µM	6.3 µM
CNC(=O)Oc1ccc(C(=O)NCc2ccccc2)cc1OC(=O)NC	> 50 µM (inactive)	> 50 µM	> 50 µM
Cc1c(C#N)c([N+](=O)[O-])nn1Cc1cccc(Cl)c1Cl	> 50 µM (inactive)	16 µM	16 µM
N#Cc1cc(N2CCCC2=O)ccc1Sc1ccccc1CO	> 50 µM (inactive)	> 50 µM	> 50 µM
Cc1cccnc1NC(=O)c1cccc(OCc2c(C)noc2C)c1	20 µM	6.3 µM	10 µM
NC(=O)c1cc(NC(=O)c2ccccc2COc2ccccc2)ccc1Cl	3.2 µM	16 µM	1.6 µM
CS(=O)(=O)NC1CCC(Nc2ncc(Br)c(Nc3ccccc3C(N)=O)n2)CC1 (centres undefined)	2 µM	0.5 µM	0.79 µM
CCc1nn(-c2ncc(F)c(NC(C)C)n2)c(N)c1C1CCCCC1	3.2 µM	16 µM	1.6 µM
COc1ccc(C2CC(c3ccccc3Cl)=NN2C(=O)CNC(=O)C2CCC2)cc1 (centres undefined)	> 50 µM (inactive)	> 50 µM	> 50 µM
COc1ccc(CN2C(=O)C(O)(CC(=O)c3ccncc3)c3cc(Br)ccc32)cc1OC (centres undefined)	25 µM	40 µM	20 µM
Cc1[nH]nc(C(F)(F)F)c1NC(=O)CCn1cc(Cl)c([N+](=O)[O-])n1	> 50 µM (inactive)	16 µM	> 50 µM
O=c1ccc2ccc(F)c3c2n1C[C@H]3CN1CCC(NCc2cc3ccccc3o2)CC1	20 µM	32 µM	13 µM
COCc1cc(Nc2cccc(Cl)c2)nc(-c2ccccn2)n1	1.6 µM	> 50 µM	0.63 µM
